Here are results for 28 molecules from patent publication US12281057B2 (VERTEX PHARMACEUTICALS INCORPORATED, priority 2017, dated 2025).

Bounds are passed on as bounds.

truncated form of human NaV 1.8 with full channel activity, sequence (Q9Y5Y9 126-1722 limits assumed): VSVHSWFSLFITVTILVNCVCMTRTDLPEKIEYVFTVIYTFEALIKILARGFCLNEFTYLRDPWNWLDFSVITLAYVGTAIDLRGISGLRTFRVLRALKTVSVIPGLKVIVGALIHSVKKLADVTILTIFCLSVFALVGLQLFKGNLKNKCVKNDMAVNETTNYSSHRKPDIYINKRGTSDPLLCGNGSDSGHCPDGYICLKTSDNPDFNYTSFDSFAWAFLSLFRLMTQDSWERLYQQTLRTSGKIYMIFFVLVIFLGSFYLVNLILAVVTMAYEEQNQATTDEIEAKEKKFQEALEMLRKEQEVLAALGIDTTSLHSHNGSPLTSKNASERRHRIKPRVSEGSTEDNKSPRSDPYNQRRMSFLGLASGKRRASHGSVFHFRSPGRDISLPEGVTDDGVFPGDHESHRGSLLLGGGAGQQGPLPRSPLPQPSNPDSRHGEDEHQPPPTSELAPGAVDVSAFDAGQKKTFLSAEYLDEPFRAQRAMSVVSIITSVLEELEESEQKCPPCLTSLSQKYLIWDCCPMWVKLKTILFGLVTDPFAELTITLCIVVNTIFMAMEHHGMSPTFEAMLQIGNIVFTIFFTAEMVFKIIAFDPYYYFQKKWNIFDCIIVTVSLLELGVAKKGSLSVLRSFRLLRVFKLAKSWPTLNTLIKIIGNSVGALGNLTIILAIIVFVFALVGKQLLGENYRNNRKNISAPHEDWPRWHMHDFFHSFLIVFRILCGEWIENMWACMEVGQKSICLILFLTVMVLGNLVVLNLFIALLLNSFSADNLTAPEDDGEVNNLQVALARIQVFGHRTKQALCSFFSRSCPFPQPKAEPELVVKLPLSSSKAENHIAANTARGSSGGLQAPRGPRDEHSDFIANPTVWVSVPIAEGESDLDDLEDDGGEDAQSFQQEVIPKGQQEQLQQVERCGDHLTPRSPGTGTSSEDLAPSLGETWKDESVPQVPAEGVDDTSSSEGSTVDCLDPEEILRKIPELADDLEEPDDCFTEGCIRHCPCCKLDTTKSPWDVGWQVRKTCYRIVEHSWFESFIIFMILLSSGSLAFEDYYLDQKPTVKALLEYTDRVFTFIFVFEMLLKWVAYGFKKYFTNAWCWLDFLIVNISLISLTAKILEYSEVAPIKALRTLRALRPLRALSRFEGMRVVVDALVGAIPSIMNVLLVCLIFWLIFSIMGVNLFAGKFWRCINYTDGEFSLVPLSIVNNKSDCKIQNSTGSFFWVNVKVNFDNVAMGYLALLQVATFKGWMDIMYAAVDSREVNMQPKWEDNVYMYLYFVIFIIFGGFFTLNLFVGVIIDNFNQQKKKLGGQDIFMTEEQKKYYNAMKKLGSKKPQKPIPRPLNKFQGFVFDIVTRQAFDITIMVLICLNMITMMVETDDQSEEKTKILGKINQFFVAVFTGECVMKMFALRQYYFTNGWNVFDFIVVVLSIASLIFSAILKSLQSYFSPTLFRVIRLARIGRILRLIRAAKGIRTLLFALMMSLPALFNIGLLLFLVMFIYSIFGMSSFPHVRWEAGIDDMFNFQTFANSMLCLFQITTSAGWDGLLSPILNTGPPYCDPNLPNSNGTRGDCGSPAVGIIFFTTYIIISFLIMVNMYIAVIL

The experiment deals with truncated form of human NaV 1.8 with full channel activity (Homo sapiens, UniProt Q9Y5Y9). The experiment is described as follows: E-VIPR Assay Method B for detecting and measuring Nav inhibition (HEK cells, membrane potential FRET dyes, electrical stimulation). As to conditions: HEK cells expressing human NaV 1.8, Table 20B, read-out: Nav 1.8 MedChem Optical Assay EVIPR Assay Method B HS IC50. Type of experiment: cell-based. An excerpt:
[formula] where X is the ratio response of the test compound. […] E-VIPR Assay Method B for Detecting and Measuring Nav Inhibition Properties Sodium ion channels are voltage-dependent proteins that can be activated by inducing membrane voltage changes by applying electric fields. The electrical stimulation instrument and methods of use, referred to as E-VIPR, are described in International Publication No. WO 2002/008748 A3 and C.-J. Huang et al. Characterization of voltage-gated sodium channel blockers by electrical stimulation and fluorescence detection of membrane potential, 24 Nature Biotech. 439-46 (2006), both of which are incorporated by reference in their entirety. The instrument comprises a microtiter plate handler, an optical system for exciting the coumarin dye while simultaneously recording the coumarin and oxonol emissions, a waveform generator, a current- or voltage-controlled amplifier, and parallel electrode pairs that are inserted into assay plate wells. Under integrated computer control, this instrument passes user-programmed electrical stimulus protocols to cells within the wells of the microtiter plate. […] Sigma #F4135), 1% NEAA (Non-Essential Amino Acids, Life Tech #11140), 1% HEPES (Life Tech #15630), 1% Pen-Strep (Penicillin-Streptomycin; […] Cells were expanded in vented cap flasks, with 95% humidity and 5% CO2. Reagents and Stock Solutions: • 100 mg/mL Pluronic F-127 (Sigma #P2443), in dry DMSO • Compound Plates: […] 5% KIR 2.1 Bacmam virus (produced in-house), prepared as described in Section 3.3 of J. A. Fornwald et al., Gene Expression in Mammalian Cells Using BacMam, a Modified Baculovirus System, 1350 Methods in Molecular Biology 95-116 (2016), the entire contents of which are incorporated by reference. • 5 mM DiSBAC6(3) (a voltage sensitive oxonol acceptor) (Aurora #00-100-010) in dry DMSO • 5 mM CC2-DMPE (a membrane-bound coumarin phospholipid FRET donor) (Aurora #00-100-008) in dry DMSO • 89 mM VABSC-1 in H2O. […] The solution was made by adding 10% Pluronic F127 stock equal to combined volumes of CC2-DMPE and DiSBAC6(3). The order of preparation was first mix Pluronic and CC2-DMPE, then add DiSBAC6(3), then while vortexing add Bath1/β-Cyclodextrin. […] Assay Protocol: […] Final DMSO concentration for all wells in the assay was 0.625% (0.75% DMSO was supplemented to the Compound Loading Buffer for a final DMSO concentration of 0.625%). 2) Hexyl Dye Solution was prepared. 3) Cell plates were prepared. On the day of the assay, the media was aspirated, and the cells were washed three times with 80 μL of Bath-1 buffer, maintaining 25 μL residual volume in each well. 4) 25 μL per well of Hexyl Dye Solution was dispensed into the cell plates. The cells were incubated for 20 minutes at room temp or ambient conditions in darkness. 5) 80 μL per well of Compound Loading Buffer was dispensed into compound plates. […] The mixture was incubated for 30 minutes at room temp/ambient conditions. […] A pre-stimulus recording was performed for 0.5 seconds to obtain the un-stimulated intensities baseline. The stimulatory waveform was followed by 0.5 seconds of post-stimulation recording to examine the relaxation to the resting state. Data Analysis: Data were analyzed and reported as normalized ratios of emission intensities measured in the 460 nm and 580 nm channels. The response as a function of time was reported as the ratios obtained using the following formula: [formula] The data were further reduced by calculating the initial (Ri) and final (Rf) ratios. These were the average ratio values during part or all of the pre-stimulation period and during sample points during the stimulation period. The fluorescence ratio (Rf/Ri) was then calculated and reported as a function of time. Control responses were obtained by performing assays in the presence of the positive control, and in the absence of pharmacological agents (DMSO vehicle negative control). Responses to the negative (N) and positive (P) controls were calculated as above. […]
The IC50 is the concentration at which inhibition is half-maximal. As for `COc1cc(F)ccc1Oc1cc(Cl)c(Cl)cc1C(=O)Nc1ccc(C(N)=O)cc1` [Compound 274, N-(4-carbamoylphenyl)-4,5-dichloro-2-(4-fluoro-2-methoxy-phenoxy)benzamide], the IC50 came out at 2 nM.
With `NC(=O)c1cc(NC(=O)c2c(Oc3ccc(F)cc3Cl)cccc2C(F)(F)F)ccc1Cl` [Compound 254, N-(3-carbamoyl-4-chlorophenyl)-2-(2-chloro-4-fluorophenoxy)-6-(trifluoromethyl)benzamide], the IC50 was found to be 260 nM.
The value for `NC(=O)c1cccc(NC(=O)c2cc(C(F)(F)F)ccc2Oc2ccccc2)c1` [Compound 277, N-(3-carbamoylphenyl)-2-phenoxy-5-(trifluoromethyl)benzamide] was 250 nM; that for `CC(C)Oc1ccccc1Oc1ccc(C(F)(F)F)cc1C(=O)Nc1cccc(C(N)=O)c1` [Compound 282, N-(3-carbamoylphenyl)-2-(2-isopropoxyphenoxy)-5-(trifluoromethyl)benzamide] was 130 nM; that for `NC(=O)c1cccc(NC(=O)c2cc(C(F)(F)F)ccc2Oc2ccccc2OC(F)F)c1` [Compound 285, N-(3-carbamoylphenyl)-2-(2-(difluoromethoxy)phenoxy)-5-(trifluoromethyl)benzamide] was 72 nM.
The value for `COc1c(F)cccc1Oc1ccc(C(F)(F)F)cc1C(=O)Nc1cccc(C(N)=O)c1` [Compound 278, N-(3-carbamoylphenyl)-2-(3-fluoro-2-methoxyphenoxy)-5-(trifluoromethyl)benzamide] was 21 nM.
The value for `COc1cc(Cl)ccc1Oc1cc(C(F)(F)F)ccc1C(=O)Nc1cccc(C(N)=O)c1` [Compound 302, N-(3-carbamoylphenyl)-2-[4-chloro-2-(methoxy)phenoxy]-4-(trifluoromethyl)benzamide] was 26 nM; that for `COc1cc(F)ccc1Oc1cc(C(F)(F)F)ccc1C(=O)Nc1cccc(C(N)=O)c1` [Compound 298, N-(3-Carbamoylphenyl)-2-[4-fluoro-2-(methoxy)phenoxy]-4-(trifluoromethyl)benzamide] was 14 nM.
As for `Cc1cc(F)ccc1Oc1cc(Cl)c(Cl)cc1C(=O)Nc1cccc(C(N)=O)c1` [Compound 267, N-(3-carbamoylphenyl)-4,5-dichloro-2-(4-fluoro-2-methyl-phenoxy)benzamide], the IC50 was 7 nM.
On to `COc1ccc(NC(=O)c2cc(C(F)(F)F)ccc2Oc2ccc(F)cc2C)cc1C(N)=O` [Compound 292, N-(3-carbamoyl-4-methoxyphenyl)-2-(4-fluoro-2-methylphenoxy)-5-(trifluoromethyl)benzamide], for which the half-maximal inhibitory concentration (IC50) was 270 nM.
As for `COc1ccc(Oc2cc(Cl)c(Cl)cc2C(=O)Nc2cccc(C(N)=O)c2)c(F)c1` [Compound 273, N-(3-carbamoylphenyl)-4,5-dichloro-2-(2-fluoro-4-methoxy-phenoxy)benzamide], the figure is 30 nM; as for `COc1ccc(Oc2cc(C(F)(F)C(F)(F)F)ccc2C(=O)Nc2cccc(C(N)=O)c2)cc1F` [Compound 250, N-(3-carbamoylphenyl)-2-(3-fluoro-4-methoxyphenoxy)-4-(1,1,2,2,2-pentafluoroethyl)benzamide], 65 nM.
On to `COc1cc(Cl)ccc1Oc1ccc(C(F)(F)F)cc1C(=O)Nc1cccc(C(N)=O)c1` [Compound 286, N-(3-carbamoylphenyl)-2-(4-chloro-2-methoxyphenoxy)-5-(trifluoromethyl)benzamide], for which the IC50 is 20 nM.
`COc1cc(F)ccc1Oc1cccc(C(F)(F)F)c1C(=O)Nc1cccc(C(N)=O)c1` [Compound 259, N-(3-carbamoylphenyl)-2-(4-fluoro-2-methoxyphenoxy)-6-(trifluoromethyl)benzamide]: the IC50 turned out to be 65 nM.
The value for `COc1ccc(Oc2ccc(C(F)(F)F)cc2C(=O)Nc2cccc(C(N)=O)c2)c(C)c1` [Compound 280, N-(3-carbamoylphenyl)-2-(4-methoxy-2-methylphenoxy)-5-(trifluoromethyl)benzamide] was 42 nM; that for `Cc1ccc(C(N)=O)cc1NC(=O)c1c(Oc2ccc(F)cc2Cl)cccc1C(F)(F)F` [Compound 255, N-(5-carbamoyl-2-methylphenyl)-2-(2-chloro-4-fluorophenoxy)-6-(trifluoromethyl)benzamide] was 7200 nM.
Turning to `NC(=O)c1cccc(NC(=O)c2cc(C(F)(F)F)ccc2Oc2ccc(F)cc2)c1` [Compound 276, N-(3-carbamoylphenyl)-2-(4-fluorophenoxy)-5-(trifluoromethyl)benzamide], the IC50 came to 98 nM.
Regarding `COc1cc(F)ccc1Oc1cc(Cl)c(Cl)cc1C(=O)Nc1cccc(C(N)=O)c1` [Compound 270, N-(3-carbamoylphenyl)-4,5-dichloro-2-(4-fluoro-2-methoxy-phenoxy)benzamide], the half-inhibitory concentration (IC50) is 9 nM.
Turning to `CC(C)(C)c1ccc(C(=O)Nc2cc(C(N)=O)ccn2)c(Oc2ccc(C(F)(F)F)nc2)c1` [Compound 262], the half-maximal inhibitory concentration (IC50) was over 25000 nM.
The value for `CC(C)(C)c1ccc(C(=O)Nc2ccnc(C(N)=O)c2)c(Oc2ccc(C(F)(F)F)nc2)c1` [Compound 266, 4-(4-(tert-butyl)-2-((6-(trifluoromethyl)pyridin-3-yl)oxy)benzamido)picolinamide] was 17000 nM; that for `NC(=O)c1cccc(NC(=O)c2cc(Cl)c(Cl)cc2Oc2ccc(F)cc2)c1` [Compound 268, N-(3-carbamoylphenyl)-4,5-dichloro-2-(4-fluorophenoxy)benzamide] was 14 nM; that for `COc1ccc(Oc2cc(Cl)c(Cl)cc2C(=O)Nc2cccc(C(N)=O)c2)cc1F` [Compound 271, N-(3-carbamoylphenyl)-4,5-dichloro-2-(3-fluoro-4-methoxy-phenoxy)benzamide] was 20 nM.
The value for `COc1ccc(NC(=O)c2c(Oc3ccc(F)cc3Cl)cccc2C(F)(F)F)cc1C(N)=O` [Compound 253, N-(3-carbamoyl-4-methoxyphenyl)-2-(2-chloro-4-fluorophenoxy)-6-(trifluoromethyl)benzamide] was 880 nM; that for `COc1ccc(Oc2cc(C(F)(F)C(F)(F)F)ccc2C(=O)Nc2cccc(C(N)=O)c2)c(Cl)c1` [Compound 251, N-(3-carbamoylphenyl)-2-(2-chloro-4-methoxyphenoxy)-4-(1,1,2,2,2-pentafluoroethyl)benzamide] was 91 nM; that for `COc1ccc(Oc2ccc(C(F)(F)F)cc2C(=O)Nc2cccc(C(N)=O)c2)c(Cl)c1` [Compound 279, N-(3-carbamoylphenyl)-2-(2-chloro-4-methoxyphenoxy)-5-(trifluoromethyl)benzamide] was 56 nM.
As for `Cc1cc(F)ccc1Oc1ccc(C(F)(F)F)cc1C(=O)Nc1cccc(C(N)=O)c1` [Compound 296, N-(3-carbamoylphenyl)-2-(4-fluoro-2-methylphenoxy)-5-(trifluoromethyl)benzamide], the figure is 18 nM; as for `Cc1cc(F)ccc1Oc1cccc(C(F)(F)F)c1C(=O)Nc1cccc(C(N)=O)c1` [Compound 258, N-(3-carbamoylphenyl)-2-(4-fluoro-2-methylphenoxy)-6-(trifluoromethyl)benzamide], 85 nM; as for `COc1ccc(Oc2cc(C(F)(F)F)ccc2C(=O)Nc2cccc(C(N)=O)c2)c(OC)c1` [Compound 301, N-(3-carbamoylphenyl)-2-[2,4-(dimethoxy)phenoxy]-4-(trifluoromethyl)benzamide], 57 nM.
